Source: publication PMC11822212, “High-throughput screening identifies Aurora kinase B as a critical therapeutic target for Merkel cell carcinoma” (Nature Communications, 2025)
Where two headings read alike, the source gives them in different places.

Assays:
Test in all cases: qHTS cell viability (CellTiter-Glo, 72 h; primary and follow-up small molecule screen)
Assay type in all cases: cell-based, human
MCC13 cells (VN-MCC) = test system: MCC13 cells (VN-MCC)
MCC26 cells (VN-MCC) = test system: MCC26 cells (VN-MCC)
UISO cells (VN-MCC) = test system: UISO cells (VN-MCC)
WAGA cells (VP-MCC) = test system: WAGA cells (VP-MCC)
MKL-1 cells (VP-MCC) = test system: MKL-1 cells (VP-MCC)
MKL-2 cells (VP-MCC) = test system: MKL-2 cells (VP-MCC)
[1] = follow-up screen, MCC13, replicate 1
[2] = follow-up screen, MCC13, replicate 2
[3] = follow-up screen, MCC13, replicate 3
[4] = follow-up screen, MCC26, replicate 1
[5] = follow-up screen, MCC26, replicate 2
[6] = follow-up screen, MCC26, replicate 3
[7] = follow-up screen, UISO, replicate 1
[8] = follow-up screen, UISO, replicate 2
[9] = follow-up screen, UISO, replicate 3
[10] = follow-up screen, WAGA, replicate 1
[11] = follow-up screen, WAGA, replicate 2
[12] = follow-up screen, WAGA, replicate 3
[13] = follow-up screen, MKL-1, replicate 1
[14] = follow-up screen, MKL-1, replicate 2
[15] = follow-up screen, MKL-1, replicate 3
[16] = follow-up screen, MKL-2, replicate 1
[17] = follow-up screen, MKL-2, replicate 2
[18] = follow-up screen, MKL-2, replicate 3

SMILES	Area under the dose-response curve (AUC) MCC13 Replicate 1 (MCC13 cells (VN-MCC))	Area under the dose-response curve (AUC) MCC13 Replicate 2 (MCC13 cells (VN-MCC))	Area under the dose-response curve (AUC) MCC13 Replicate 3 (MCC13 cells (VN-MCC))	Area under the dose-response curve (AUC) MCC26 Replicate 1 (MCC26 cells (VN-MCC))	Area under the dose-response curve (AUC) MCC26 Replicate 2 (MCC26 cells (VN-MCC))	Area under the dose-response curve (AUC) MCC26 Replicate 3 (MCC26 cells (VN-MCC))	Area under the dose-response curve (AUC) UISO Replicate 1 (UISO cells (VN-MCC))	Area under the dose-response curve (AUC) UISO Replicate 2 (UISO cells (VN-MCC))	Area under the dose-response curve (AUC) UISO Replicate 3 (UISO cells (VN-MCC))	Area under the dose-response curve (AUC) WAGA Replicate 1 (WAGA cells (VP-MCC))	Area under the dose-response curve (AUC) WAGA Replicate 2 (WAGA cells (VP-MCC))	Area under the dose-response curve (AUC) WAGA Replicate 3 (WAGA cells (VP-MCC))	Area under the dose-response curve (AUC) MKL-1 Replicate 1 (MKL-1 cells (VP-MCC))	Area under the dose-response curve (AUC) MKL-1 Replicate 2 (MKL-1 cells (VP-MCC))	Area under the dose-response curve (AUC) MKL-1 Replicate 3 (MKL-1 cells (VP-MCC))	Area under the dose-response curve (AUC) MKL-2 Replicate 1 (MKL-2 cells (VP-MCC))	Area under the dose-response curve (AUC) MKL-2 Replicate 2 (MKL-2 cells (VP-MCC))	Area under the dose-response curve (AUC) MKL-2 Replicate 3 (MKL-2 cells (VP-MCC))	Area under the dose-response curve (AUC) MCC13 Replicate 1 (MCC13 cells (VN-MCC); [1])	Area under the dose-response curve (AUC) MCC13 Replicate 2 (MCC13 cells (VN-MCC); [2])	further results
CC[C@@]1(O)C(=O)OCc2c1cc1n(c2=O)Cc2cc3cc(O)ccc3nc2-1 [10-hydroxycamptothecin]	287.3	291.9	277.2	260.5	244.0	250.0	187.9	199.3	183.4	195.8	197.2	184.4	214.0	217.0	223.0	184.7	164.5	246.0	–	–	–
CN(C)C(=S)SSC(=S)N(C)C [Thiram]	–	–	–	–	–	–	–	–	–	–	–	–	–	–	–	–	–	–	426.5	421.8	Area under the dose-response curve (AUC) MCC13 Replicate 3 (MCC13 cells (VN-MCC); [3]): 374.2; Area under the dose-response curve (AUC) MCC26 Replicate 1 (MCC26 cells (VN-MCC); [4]): 337.3; Area under the dose-response curve (AUC) MCC26 Replicate 2 (MCC26 cells (VN-MCC); [5]): 393.8; Area under the dose-response curve (AUC) MCC26 Replicate 3 (MCC26 cells (VN-MCC); [6]): 315.2; Area under the dose-response curve (AUC) UISO Replicate 1 (UISO cells (VN-MCC); [7]): 236.0; Area under the dose-response curve (AUC) UISO Replicate 2 (UISO cells (VN-MCC); [8]): 292.8; Area under the dose-response curve (AUC) UISO Replicate 3 (UISO cells (VN-MCC); [9]): 254.7; Area under the dose-response curve (AUC) WAGA Replicate 1 (WAGA cells (VP-MCC); [10]): 336.4; Area under the dose-response curve (AUC) WAGA Replicate 2 (WAGA cells (VP-MCC); [11]): 438.2; Area under the dose-response curve (AUC) WAGA Replicate 3 (WAGA cells (VP-MCC); [12]): 469.3; Area under the dose-response curve (AUC) MKL-1 Replicate 1 (MKL-1 cells (VP-MCC); [13]): 288.7; Area under the dose-response curve (AUC) MKL-1 Replicate 2 (MKL-1 cells (VP-MCC); [14]): 292.8; Area under the dose-response curve (AUC) MKL-1 Replicate 3 (MKL-1 cells (VP-MCC); [15]): 242.1; Area under the dose-response curve (AUC) MKL-2 Replicate 1 (MKL-2 cells (VP-MCC); [16]): 303.0; Area under the dose-response curve (AUC) MKL-2 Replicate 2 (MKL-2 cells (VP-MCC); [17]): 281.4; Area under the dose-response curve (AUC) MKL-2 Replicate 3 (MKL-2 cells (VP-MCC); [18]): 269.4
C[C@H]1CCC/C=C/[C@@H]2C[C@H](OC(=O)CN(C)C)C[C@H]2[C@H](O)/C=C/C(=O)O1 [Breflate]	301.4	313.0	291.5	324.6	334.5	272.7	287.6	297.1	295.8	298.7	274.6	278.0	284.7	297.0	286.8	314.0	292.1	266.7	–	–	–
C[n+]1cc2c3c(ccc2c2ccc4cc5c(cc4c21)OCO5)OCO3 [Sanguinarine]	361.4	359.5	378.6	339.9	348.4	364.0	370.0	363.9	365.4	371.2	384.9	367.1	358.8	334.5	363.7	328.8	346.3	358.6	–	–	–
COc1ccc([C@]2(C#N)CC[C@@H](C(=O)O)CC2)cc1OC1CCCC1 [Cilomilast]	–	–	–	–	–	–	–	–	–	–	–	–	–	–	–	–	–	–	465.9	445.9	Area under the dose-response curve (AUC) MCC13 Replicate 3 (MCC13 cells (VN-MCC); [3]): 491.5; Area under the dose-response curve (AUC) MCC26 Replicate 1 (MCC26 cells (VN-MCC); [4]): 421.1; Area under the dose-response curve (AUC) MCC26 Replicate 2 (MCC26 cells (VN-MCC); [5]): 410.0; Area under the dose-response curve (AUC) MCC26 Replicate 3 (MCC26 cells (VN-MCC); [6]): 436.1; Area under the dose-response curve (AUC) UISO Replicate 1 (UISO cells (VN-MCC); [7]): 447.9; Area under the dose-response curve (AUC) UISO Replicate 2 (UISO cells (VN-MCC); [8]): 471.9; Area under the dose-response curve (AUC) UISO Replicate 3 (UISO cells (VN-MCC); [9]): 485.5; Area under the dose-response curve (AUC) WAGA Replicate 1 (WAGA cells (VP-MCC); [10]): 477.6; Area under the dose-response curve (AUC) WAGA Replicate 2 (WAGA cells (VP-MCC); [11]): 504.5; Area under the dose-response curve (AUC) WAGA Replicate 3 (WAGA cells (VP-MCC); [12]): 496.1; Area under the dose-response curve (AUC) MKL-1 Replicate 1 (MKL-1 cells (VP-MCC); [13]): 459.2; Area under the dose-response curve (AUC) MKL-1 Replicate 2 (MKL-1 cells (VP-MCC); [14]): 478.6; Area under the dose-response curve (AUC) MKL-1 Replicate 3 (MKL-1 cells (VP-MCC); [15]): 483.6; Area under the dose-response curve (AUC) MKL-2 Replicate 1 (MKL-2 cells (VP-MCC); [16]): 473.7; Area under the dose-response curve (AUC) MKL-2 Replicate 2 (MKL-2 cells (VP-MCC); [17]): 471.8; Area under the dose-response curve (AUC) MKL-2 Replicate 3 (MKL-2 cells (VP-MCC); [18]): 486.7
CS[C@H]1SC[C@H]2C(=O)N(C)[C@@H](C(C)C)C(=O)OC[C@@H](NC(=O)c3cnc4ccccc4n3)C(=O)N[C@@H](C)C(=O)N(C)[C@@H]1C(=O)N(C)[C@@H](C(C)C)C(=O)OC[C@@H](NC(=O)c1cnc3ccccc3n1)C(=O)N[C@@H](C)C(=O)N2C [Echinomycin]	310.2	265.0	244.8	267.2	264.2	215.9	140.9	135.8	136.4	225.7	172.6	225.4	235.9	188.8	250.5	166.1	154.0	225.2	–	–	–
O=c1cc(-c2ccc(O)c(O)c2)oc2cc(O)cc(O)c12 [Luteolin]	–	–	–	–	–	–	–	–	–	–	–	–	–	–	–	–	–	–	522.6	523.6	Area under the dose-response curve (AUC) MCC13 Replicate 3 (MCC13 cells (VN-MCC); [3]): 493.6; Area under the dose-response curve (AUC) MCC26 Replicate 1 (MCC26 cells (VN-MCC); [4]): 469.7; Area under the dose-response curve (AUC) MCC26 Replicate 2 (MCC26 cells (VN-MCC); [5]): 436.1; Area under the dose-response curve (AUC) MCC26 Replicate 3 (MCC26 cells (VN-MCC); [6]): 492.5; Area under the dose-response curve (AUC) UISO Replicate 1 (UISO cells (VN-MCC); [7]): 505.5; Area under the dose-response curve (AUC) UISO Replicate 2 (UISO cells (VN-MCC); [8]): 498.3; Area under the dose-response curve (AUC) UISO Replicate 3 (UISO cells (VN-MCC); [9]): 457.3; Area under the dose-response curve (AUC) WAGA Replicate 1 (WAGA cells (VP-MCC); [10]): 542.7; Area under the dose-response curve (AUC) WAGA Replicate 2 (WAGA cells (VP-MCC); [11]): 525.5; Area under the dose-response curve (AUC) WAGA Replicate 3 (WAGA cells (VP-MCC); [12]): 485.9; Area under the dose-response curve (AUC) MKL-1 Replicate 1 (MKL-1 cells (VP-MCC); [13]): 484.8; Area under the dose-response curve (AUC) MKL-1 Replicate 2 (MKL-1 cells (VP-MCC); [14]): 451.1; Area under the dose-response curve (AUC) MKL-1 Replicate 3 (MKL-1 cells (VP-MCC); [15]): 471.1; Area under the dose-response curve (AUC) MKL-2 Replicate 1 (MKL-2 cells (VP-MCC); [16]): 469.9; Area under the dose-response curve (AUC) MKL-2 Replicate 2 (MKL-2 cells (VP-MCC); [17]): 500.3; Area under the dose-response curve (AUC) MKL-2 Replicate 3 (MKL-2 cells (VP-MCC); [18]): 460.5
O=C1Nc2cc(Br)ccc2/C1=C1/Nc2ccccc2/C1=N\O [BIO]	481.8	449.1	449.8	419.0	405.4	424.1	266.6	275.6	251.6	533.5	491.3	474.9	450.0	447.7	422.6	490.0	435.9	463.9	–	–	–
Nc1ncnc2c1ncn2[C@@H]1O[C@H](CO)[C@@H](O)[C@H]1O [Adenosine]	–	–	–	–	–	–	–	–	–	–	–	–	–	–	–	–	–	–	550.6	498.0	Area under the dose-response curve (AUC) MCC13 Replicate 3 (MCC13 cells (VN-MCC); [3]): 487.2; Area under the dose-response curve (AUC) MCC26 Replicate 1 (MCC26 cells (VN-MCC); [4]): 484.4; Area under the dose-response curve (AUC) MCC26 Replicate 2 (MCC26 cells (VN-MCC); [5]): 450.7; Area under the dose-response curve (AUC) MCC26 Replicate 3 (MCC26 cells (VN-MCC); [6]): 501.0; Area under the dose-response curve (AUC) UISO Replicate 1 (UISO cells (VN-MCC); [7]): 514.9; Area under the dose-response curve (AUC) UISO Replicate 2 (UISO cells (VN-MCC); [8]): 502.8; Area under the dose-response curve (AUC) UISO Replicate 3 (UISO cells (VN-MCC); [9]): 486.4; Area under the dose-response curve (AUC) WAGA Replicate 1 (WAGA cells (VP-MCC); [10]): 557.9; Area under the dose-response curve (AUC) WAGA Replicate 2 (WAGA cells (VP-MCC); [11]): 476.1; Area under the dose-response curve (AUC) WAGA Replicate 3 (WAGA cells (VP-MCC); [12]): 490.2; Area under the dose-response curve (AUC) MKL-1 Replicate 1 (MKL-1 cells (VP-MCC); [13]): 523.5; Area under the dose-response curve (AUC) MKL-1 Replicate 2 (MKL-1 cells (VP-MCC); [14]): 521.0; Area under the dose-response curve (AUC) MKL-1 Replicate 3 (MKL-1 cells (VP-MCC); [15]): 519.8; Area under the dose-response curve (AUC) MKL-2 Replicate 1 (MKL-2 cells (VP-MCC); [16]): 483.1; Area under the dose-response curve (AUC) MKL-2 Replicate 2 (MKL-2 cells (VP-MCC); [17]): 500.4; Area under the dose-response curve (AUC) MKL-2 Replicate 3 (MKL-2 cells (VP-MCC); [18]): 489.0
